# Tests used:
# CYP1A2 [1] = target: T1, CYP1A2 (Rattus norvegicus, UniProt P04799); assay: Cocktail method in rats: pharmacokinetics of probe drug theophylline (CYP1A2 activity); type: in vivo; details: male, Wistar, plasma, iv, 10 mg/kg, theophylline 10 mg/kg iv
# T1 construct: from tissue; host or cells: whole animal, male Wistar rats (in vivo pharmacokinetics)
# T1 sequence (P04799 1-513): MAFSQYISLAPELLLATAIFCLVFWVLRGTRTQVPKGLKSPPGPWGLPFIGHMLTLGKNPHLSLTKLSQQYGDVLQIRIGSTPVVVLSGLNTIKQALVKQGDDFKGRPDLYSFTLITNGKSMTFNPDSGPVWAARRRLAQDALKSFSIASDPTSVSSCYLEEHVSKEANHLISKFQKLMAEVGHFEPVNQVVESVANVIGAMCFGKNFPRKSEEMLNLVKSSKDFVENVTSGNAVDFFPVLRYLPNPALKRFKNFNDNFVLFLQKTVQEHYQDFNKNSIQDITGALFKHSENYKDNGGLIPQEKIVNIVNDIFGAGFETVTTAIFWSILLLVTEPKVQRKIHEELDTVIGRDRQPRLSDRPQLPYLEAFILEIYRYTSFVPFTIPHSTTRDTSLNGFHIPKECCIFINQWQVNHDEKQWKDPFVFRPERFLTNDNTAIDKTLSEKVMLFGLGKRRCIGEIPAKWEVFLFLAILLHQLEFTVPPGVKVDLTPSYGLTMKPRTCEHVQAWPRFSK
# Protocol: (§1) UltiMate3000 HPLC equipped with diode array detector was used to analyze the compounds.
# (§2) Forty-eight male Wistar rats (220 ± 20 g) were randomly divided into two control groups, two Digeda groups, and two positive groups (n=8). […] The other groups were given the mixture of two probe drugs (omeprazole and midazolam were 10 mg/kg and 5 mg/kg) by intravenous injection.
# (§3) The samples were immediately centrifuged at 3500 r/min for 10 min, and 200 μL plasma was obtained from each sample.
# (§4) The plasma samples were extracted. In a 5 mL centrifuge tube, 100 μL of the IS working solution (0.1 mg/mL) was added to 200 uL of collected plasma sample followed by the addition of 2 mL of dichloromethane. After the tube was vortex-mixed for 5 min, the sample was centrifuged at 3500 r/min for 10 min. 1.2 mL of the organic phase was transferred into the other glass tube and was dried by nitrogen. The residue was redissolved with 200 μL methanol and then injected into the HPLC system for analysis. The concentration of probe drugs in plasma was measured by HPLC.
# (§5) Plasma probe drug concentration versus time data for each rat was analyzed by DAS software (version 3.0, Drug Clinical Research Center of Shanghai University of TCM and Shanghai BioGuider Medicinal Technology, Co. Ltd., China). The pharmacokinetic parameters of the Digeda group and control group probe drugs with the t-test were analyzed using SPSS 17.0 statistical software. p < 0.05 was considered statistically significant.
# CYP3A4 [2] = tested on: CYP3A4; set-up: method as in ref 45 = [45]; 45 Han Y. L. Meng X. L. Li D. In Vitro Inhibition of Six Cytochrome P450 Isoforms in Human Liver Microsomes by Qingkailing Injection and Its Two Active Components(Baicalin and Geniposide) Chinese Phar; details: Han's research; cited from earlier work
# CYP2C9 [3] = tested on: CYP2C9; set-up: method as in ref 45 = [45]; 45 Han Y. L. Meng X. L. Li D. In Vitro Inhibition of Six Cytochrome P450 Isoforms in Human Liver Microsomes by Qingkailing Injection and Its Two Active Components(Baicalin and Geniposide) Chinese Phar; details: Han's research; cited from earlier work
# CYP1A2 [4] = tested on: CYP1A2; set-up: method as in ref 45 = [45]; 45 Han Y. L. Meng X. L. Li D. In Vitro Inhibition of Six Cytochrome P450 Isoforms in Human Liver Microsomes by Qingkailing Injection and Its Two Active Components(Baicalin and Geniposide) Chinese Phar; details: Han's research; cited from earlier work
# CYP2C19 [5] = tested on: CYP2C19; set-up: method as in ref 45 = [45]; 45 Han Y. L. Meng X. L. Li D. In Vitro Inhibition of Six Cytochrome P450 Isoforms in Human Liver Microsomes by Qingkailing Injection and Its Two Active Components(Baicalin and Geniposide) Chinese Phar; details: Han's research; cited from earlier work
# CYP2C19 [6] = assay: Cocktail method in rats: pharmacokinetics of probe drug omeprazole (CYP2C19 activity); type: in vivo; details: male, Wistar, omeprazole 10 mg/kg iv
# Protocol: as §1, §2, §3, §4, §5
# CYP1A2 [7] = tested on: CYP1A2; set-up: method as in ref 43 = [43]; 43 Du Y. Zhu R.-H. Su F.-L. Wang F. Liang H.-X. Li H.-D. Effect of oleanolic acid on CYP1A2, CYP2E1 and CYP3A4 activity in healthy subjects Chinese Pharmaceutical Journal 2008 43 4 300 303 2-s2.0-5304; details: healthy volunteers; cited from earlier work
# CYP3A4 [8] = details: healthy volunteers; cited from earlier work
# CYP2E1 = tested on: CYP2E1; set-up: method as in ref 43 = [43]; 43 Du Y. Zhu R.-H. Su F.-L. Wang F. Liang H.-X. Li H.-D. Effect of oleanolic acid on CYP1A2, CYP2E1 and CYP3A4 activity in healthy subjects Chinese Pharmaceutical Journal 2008 43 4 300 303 2-s2.0-5304; details: healthy volunteers; cited from earlier work
# CYP3A4 [9] = assay: Cocktail method in rats: pharmacokinetics of probe drug midazolam (CYP3A4 activity); details: male, Wistar, rat, plasma, iv, 5 mg/kg, midazolam 5 mg/kg iv; for AUC(0-t): AUC0~t; for AUC(0-inf): AUC0~∞; for clearance: Cl
# Protocol: as §1, §2, §3, §4, §5
# CYP2C9 [10] = tested on: CYP2C9; set-up: method as in ref 44 = [44]; 44 Zhang Y. D. Liu X. Q. Guo Y. L. Effects of 20 active ingredients of traditional Chinese herbs on CYP2C9 activities in rat liver microsomes Journal of Third Military Medical University 2013 35 24 26; details: rat liver microsomes in vitro; cited from earlier work
# CYP2C19 [11] = details: in vivo; cited from earlier work
# [12] = Digeda group (Digeda-4 decoction 600 mg/kg ig 14 days)
# [13] = control group (saline ig 14 days)
# [14] = positive group (phenobarbital 50 mg/kg ip 7 days)
# [15] = positive group (phenobarbital 50 mg/kg ip 7 days), rat plasma
# [16] = rat, plasma, iv, 10 mg/kg, Digeda group (Digeda-4 decoction 600 mg/kg ig 14 days)
# [17] = rat, plasma, iv, 10 mg/kg, control group (saline ig 14 days)
# [18] = rat, plasma, iv, 10 mg/kg, positive group (phenobarbital 50 mg/kg ip 7 days)
compound,measurement,setting,value
"Cn1c(=O)c2[nH]cnc2n(C)c1=O [Theophylline, theophylline]",AUC(0-inf),CYP1A2 [1]; [12],569000 ± 142000 ng·h/mL
same,AUC(0-t),CYP1A2 [1]; [12],299000 ± 67000 ng·h/mL
same,Cmax,CYP1A2 [1]; [12],30700 ± 5450 ng/mL
same,clearance,CYP1A2 [1]; [12],0.333 mL/min/kg
same,half-life,CYP1A2 [1]; [12],835 ± 160 min
same,AUC(0-inf),CYP1A2 [1]; [13],326000 ± 76900 ng·h/mL
same,AUC(0-t),CYP1A2 [1]; [13],206000 ± 37100 ng·h/mL
same,Cmax,CYP1A2 [1]; [13],31800 ± 5610 ng/mL
same,clearance,CYP1A2 [1]; [13],0.55 mL/min/kg
same,half-life,CYP1A2 [1]; [13],402 ± 97.5 min
same,AUC(0-inf),CYP1A2 [1]; [14],118000 ± 21400 ng·h/mL
same,AUC(0-t),CYP1A2 [1]; [14],71900 ± 15400 ng·h/mL
same,Cmax,CYP1A2 [1]; [14],30000 ± 5180 ng/mL
same,clearance,CYP1A2 [1]; [14],1.02 mL/min/kg
same,half-life,CYP1A2 [1]; [14],148 ± 21.5 min
COC(=O)C1=CO[C@@H](O[C@@H]2O[C@H](CO)[C@@H](O)[C@H](O)[C@H]2O)[C@@H]2C(CO)=CC[C@H]12 [geniposide],inhibitory effect on CYP3A4,CYP3A4 [2],no inhibitory effect
same,inhibitory effect on CYP2C9,CYP2C9 [3],no inhibitory effect
same,inhibitory effect on CYP1A2,CYP1A2 [4],no inhibitory effect
same,inhibitory effect on CYP2C19,CYP2C19 [5],no inhibitory effect
"COc1ccc2[nH]c([S+]([O-])Cc3ncc(C)c(OC)c3C)nc2c1 (stereo not drawn) [Omeprazole, omeprazole]",clearance,CYP2C19 [6]; [15],10.2 mL/min/kg
same,half-life,CYP2C19 [6]; [15],7.08 ± 1.2 min
same,AUC(0-inf),CYP2C19 [6]; [16],14200 ± 2610 ng·h/mL
same,AUC(0-t),CYP2C19 [6]; [16],13300 ± 2630 ng·h/mL
same,Cmax,CYP2C19 [6]; [16],38600 ± 6690 ng/mL
same,clearance,CYP2C19 [6]; [16],4.9 mL/min/kg
same,half-life,CYP2C19 [6]; [16],16.9 ± 2.76 min
same,AUC(0-inf),CYP2C19 [6]; [17],7280 ± 1310 ng·h/mL
same,AUC(0-t),CYP2C19 [6]; [17],6920 ± 1390 ng·h/mL
same,Cmax,CYP2C19 [6]; [17],20900 ± 3710 ng/mL
same,clearance,CYP2C19 [6]; [17],8 mL/min/kg
same,half-life,CYP2C19 [6]; [17],9.78 ± 1.92 min
same,AUC(0-inf),CYP2C19 [6]; [18],5340 ± 993 ng·h/mL
same,AUC(0-t),CYP2C19 [6]; [18],4980 ± 845 ng·h/mL
same,Cmax,CYP2C19 [6]; [18],16900 ± 2630 ng/mL
CC1(C)CC[C@]2(C(=O)O)CC[C@]3(C)C(=CC[C@@H]4[C@@]5(C)CC[C@H](O)C(C)(C)[C@@H]5CC[C@]43C)[C@@H]2C1 [Oleanolic acid],effect on CYP1A2 activity,CYP1A2 [7],can inhibit CYP1A2 activity significantly
same,effect on CYP3A4,CYP3A4 [8],no effect
same,effect on CYP2E1 activity,CYP2E1,little inhibition
"Cc1ncc2n1-c1ccc(Cl)cc1C(c1ccccc1F)=NC2 [Midazolam, midazolam]",AUC(0-t),CYP3A4 [9]; [12],1170 ± 209 ng·h/mL
same,AUC(0-t),CYP3A4 [9]; [13],881 ± 151 ng·h/mL
same,AUC(0-t),CYP3A4 [9]; [14],653 ± 95 ng·h/mL
same,AUC(0-inf),CYP3A4 [9]; [12],1360 ± 309 ng·h/mL
same,AUC(0-inf),CYP3A4 [9]; [13],928 ± 157 ng·h/mL
same,AUC(0-inf),CYP3A4 [9]; [14],711 ± 125 ng·h/mL
same,clearance,CYP3A4 [9]; [12],69.7 mL/min/kg
same,clearance,CYP3A4 [9]; [13],104 mL/min/kg
same,clearance,CYP3A4 [9]; [14],115 mL/min/kg
same,Cmax,CYP3A4 [9]; [12],2680 ± 509 ng/mL
same,Cmax,CYP3A4 [9]; [13],2900 ± 491 ng/mL
same,Cmax,CYP3A4 [9]; [14],2560 ± 507 ng/mL
same,half-life,"CYP3A4 [9]; T1/2, Digeda group (Digeda-4 decoction 600 mg/kg ig 14 days)",11.9 ± 1.92 min
same,half-life,"CYP3A4 [9]; T1/2, control group (saline ig 14 days)",8.64 ± 1.8 min
same,half-life,"CYP3A4 [9]; T1/2, positive group (phenobarbital 50 mg/kg ip 7 days)",6.3 ± 0.96 min
C=C[C@H]1[C@H](O[C@@H]2O[C@H](CO)[C@@H](O)[C@H](O)[C@H]2O)OC=C2C(=O)OCC[C@]21O [swertiamarin],effect on CYP2C9 activity,CYP2C9 [10],inhibitory effect
COc1cc(C(=O)O[C@H]2[C@@H]3C=CO[C@@H](O[C@@H]4O[C@H](CO)[C@@H](O)[C@H](O)[C@H]4O)[C@@H]3[C@@]3(CO)O[C@@H]23)ccc1O [picroside II],effect on the activity of CYP2C19,CYP2C19 [11],inhibitory effect
